# Data as given in patent US20230233671A1, “RNA MOLECULES” (Pfizer Inc., priority 2021, published 2023).
# How the values were obtained:
# [1] = system: human embryonic kidney (HEK) 293T cells; assay: In vitro expression (IVE) of VZV RNA-LNP vaccines in HEK 293T cells (FACS); format: cell-based; settings: for VZV RNA-LNPs (293T cells) MFI: Table 7; for VZV RNA-LNPs (293T cells) EC50 (ng/well): Table 7, FIG. 14, input RNA vs percentage of gE-expressing cells, 24 hours
# Experimental: In vitro expression (IVE) analyses were conducted to assess the potency of VZV RNA-LNP vaccines. RNA constructs were formulated into LNPs as previously described in Example 3, and a range of input VZV RNA-LNP quantities was transfected into human embryonic kidney (HEK) 293T cells for 24 hours at 37° C., 5% CO2. Transfected cells were washed with DPBS, detached from plate wells using ACCUTASE®, and rinsed with cold PBS. Cells were subjected to live/dead staining, fixation, and permeabilization prior to FACS staining. Fixed and permeabilized cells were incubated with an anti-gE primary antibody (1:1000) for 45 minutes at 2-8° C., washed twice with BD PERM/WASH™ buffer and incubated with a goat anti-human kappa-PE secondary antibody (1:1000) for 30 minutes at 2-8° C. Cells were washed twice with BD PERM/WASH™ buffer, resuspended in 1×FACS buffer, and analyzed on a BD LSRII to determine the proportion of cells expressing VZV gE for each VZV RNA-LNP input. A titration curve was created whereby input RNA quantities were plotted against the percentage of gE-expressing cells to determine the EC50 of each VZV RNA-LNP vaccine.
# VZV gE = assay: Serum VZV gE-binding IgG levels (LUMINEX) in immunized Balb/c mice; format: in vivo; settings: for Day 28 (GMC), serum gE-binding IgG: 0.5 μg IM Day 0, Day 28 (prime only); for Day 34 (GMC), serum gE-binding IgG: 0.5 μg IM Days 0 and 28, Day 34 (six days after boost); for Day 42 (GMC), serum gE-binding IgG: 0.5 μg IM Days 0 and 28, Day 42 (two weeks after booster)
# Experimental: VZV RNA-LNP vaccines were tested for their ability to induce IgG and T cell responses in Balb/c mice. 15 mice per group were immunized in accordance with the schedule and specifications in Table 9. Briefly, 15 mice per group were immunized intramuscularly (IM) on Day 0 and boosted IM on Day 28. Mice immunized with SHINGRIX® received 1, 2.5, or 5 μg, corresponding to 1/50, 1/20, and 1/10 of the human clinical dose (50 μg), respectively; mice immunized with gE_WT CO1 received 0.5 or 1 μg; mice immunized with ms3 CO1 received 0.5 μg; mice immunized with ms4 CO1 received 0.5 μg; mice immunized with gE_WT CO2 received 0.5 μg; mice immunized with lyophilized gE_WT CO1 received 0.5 or 1 μg. Saline was administered on Days 0 and 28 to a negative control group. Serum was collected from mice on Days 28 and 42 for characterization of VZV gE-binding IgG levels (LUMINEX® analyses). Spleens were harvested, and sera collected, from five mice in each group on Day 35 for cellular analyses.
# Serum IgG levels were determined for each mouse sample using the LUMINEX® platform. Briefly, diluted sera were incubated in the dark in the presence of blocked, recombinant gE protein-bound single-plex microspheres (MAGPLEX® Microspheres, region 79) for 20±4 hours at 2-8° C., 300 rpm. A secondary antibody solution (R-phycoerythrin Conjugated AffiniPure F(ab)′2 Fragment Goat Anti-Mouse IgG F(ab)′2 Fragment Specific) was prepared at 1:250 in LXA-16 buffer. Plates were washed three times in LXA-20 (EIA-7), and secondary antibody was applied to each well of the assay plate. Plates were covered with aluminum sealers and incubated for 2 hours±15 minutes at 25° C., 300 rpm. Plates were washed three times with LXA-20 (EIA-7) buffer, and 100 ul LXA-20 was applied to each well. Plates were covered with aluminum sealers and incubated at 25° C., 300 rpm for a minimum of 4 minutes, or up to 2 hours. Plates were analyzed on a BIO-PLEX® Reader. IgG titers for Day, 28, 34 and 42 are show in Table 10 and FIGS. 17-19.
# Vero cells = assay: VZV gE expression and subcellular localization in Vero cells transfected with VZV RNA constructs (imaging); format: cell-based, African green monkeys; settings: for VZV RNA (Vero cells) MFI: Table 7, VZV gE RNA, see Example 2
# Experimental: Expression of VZV RNA constructs were tested in transfected Vero cells, a kidney epithelial cell culture line derived from African green monkeys. Seeded Vero cells were transfected for 24 hours at 37° C., 5% CO2 with 10 ng, 25 ng, or 50 ng of RNA constructs (Table 5) using MESSENGERMAX™ in accordance with the manufacturer's instructions. Cells were washed three times with PBS+Ca/Mg, and fixed in 4% paraformaldehyde (PFA) for 20 minutes at 25° C. Cells were washed twice with 3% bovine serum albumin (BSA) in PBS+Ca/Mg. Primary and secondary staining antibodies were diluted in 0.1% saponin in goat serum. Cells were stained with a 1:1000 dilution of primary antibody for 1 hour at 37° C., washed three times with PBS+Ca/Mg, and incubated with secondary antibody (1:500) and CELLMASK™ (1:140,000) for 45 minutes at 37° C. Cells were then stained with Dapi (1:15,000-1:20,000) for 15 minutes at 25° C., and washed three times with PBS+Ca/Mg. Cells were analyzed for VZV gE expression and subcellular localization using an Opera PHENIX® Plus High-Content Screening System at 10× or 63× magnification.
Substance,VZV RNA-LNPs (293T cells) MFI [1],VZV RNA-LNPs (293T cells) EC50 (ng/well) [1],"Day 28 (GMC), serum gE-binding IgG (VZV gE)","Day 34 (GMC), serum gE-binding IgG (VZV gE)","Day 42 (GMC), serum gE-binding IgG (VZV gE)",VZV RNA (Vero cells) MFI (Vero cells),"subcellular localization of VZV gE (Vero cells; Vero cells, 50 ng at 63× and 25 ng at 10× magnification)"
"ms3 CO1: modRNA construct, ORF SEQ ID NO: 149, VZV gE with deletion of aa 547-623, secreted",663,231 ng/well,3.98,29.5,370.11,497,–
"ms4 CO1: modRNA construct, ORF SEQ ID NO: 151, full length VZV gE with substitution Y582A",1713,15 ng/well,3.55,112.7,598.57,981,–
ms8: RNA constructs encoding VZV gE with deletion of the acidic domain aa 588-602 (SEQ ID NO: 6),–,–,–,–,–,–,preferentially within cellular membranes
